The conditions of data set [1]: cited from earlier work.
The conditions of data set [2]: as a medical food or other suitable formulation; cited from earlier work.
The conditions of data set [3]: via the kidneys; cited from earlier work.
The subject of data set [4] is CP-450 system. The following applies: cited from earlier work.
Data set [5] deals with patients with an autism spectrum disorder or an attention deficit disorder. How it is done:
The patient is dosed with L-methylfolate orally once a day according to preparations available. The patient takes the medication at the same time of day and with a snack or meal. The patient is initially dosed with L-methylfolate according to weight as follows: • 25-45 lbs (11-20 kg): 2.5 mg • 46-60 lbs (21-27 kg): 5 mg • 61-90 lbs (28-41 kg): 7.5 mg • 91+ lbs (42+kg): 7.5-15 mg Dose Modifications and Duration of Therapy
L-methylfolate is administered in doses and forms appropriate for age. L-methylfolate is titrated upward as indicated by behavior improvement according to the results from the screens. Titration may occur from week 1 through 30 days as indicated by the physician. From 30 days to 90 days, the achieved dose at 30 days is maintained until 90 days to observe for tolerance to drug, side effects. During this time, if the child is not weaned from stimulant medications, attempts are made to lower the stimulant as tolerated and discontinue stimulants if at all possible.
In implementing therapy the first consideration is the presence of clinical signs consistent with previous or current diagnosis of an autism spectrum disorder or an attention deficit disorder. […] The established diagnosis was not a sole indicator for therapy.
Second, a review of the family history is necessary. […] Parents were questioned about the presence of ADHD or autism spectrum disorders in the immediate family or extended family. Of particular interest was the presence of other neuropsychiatric conditions, such as depression, anxiety, and bipolar disorder. Parents also were queried regarding the presence of heart disease, difficulties with pregnancy due infertility or miscarriages, leukemia, gastric and colon cancers, breast cancer and stroke. In elderly members of the family, the occurrence of dementia, Alzheimer's, and Parkinson's was also discussed. The above diseases have also been associated to varying degrees with the methylenetetrahydrofolate reductase defect.
Third, blood samples were collected and evaluated. The laboratory exams completed on the blood samples were: a complete blood count with differential, serum folate, serum B12, and serum homocysteine. The tests were performed to establish a baseline for red cell morphology while evaluating for any pre-existing pathologies related to anemia, leukemia, or other blood dycrasias. Serum folate and B12 have been implicated in certain pathologies of the red blood cell and are critical components in folate metabolism. Vitamin B12 in the range of 400 pg/ml or less has been associated with neuropsychiatric sequelae in 5-10% of population. (Quest Labs) Finally, elevated homocysteine levels in the serum have been associated with various disease states, particularly in the presence of the methylenetetrahydrofolate reductase gene polymorphisms. […] However, a few researchers have been able to evaluate severely compromised children.
Fourth, serum was evaluated for the presence of methylenetetrahydrofolate reductase polymorphisms as a predictor of condition severity and response to therapy. Given the expense of these analyses, it was decided to delay evaluation of the serum for the polymorphisms until a clinic response was determined.
In a preliminary trial, nineteen patients, ages 4-43 years, (3 female, 16 male) were randomly selected over the course of three months. Patients were permitted to remain on current medication or supplemental, i.e., fish oil and vitamins, therapies at parental request.

[6] abbreviates: of the 14 patients, parental report.

For `Nc1nc(=O)c2c([nH]1)NCC(CNc1ccc(C(=O)N[C@@H](CCC(=O)O)C(=O)O)cc1)N2C=O` (mixture of isomers) [folinic acid], the “side effect, anecdotal report” value in data set [1] (one patient, dose increased to 1 mg/kg/d) was “worsening of behavior symptoms”.

`CN1c2c(nc(N)[nH]c2=O)NC[C@@H]1CNc1ccc(C(=O)N[C@@H](CCC(=O)O)C(=O)O)cc1` [L-methylfolate, 6(S)-5-methyltetrahydrofolate]: the “blood brain barrier crossing” value in data set [2] is listed as “crosses the blood brain barrier”. In addition, the excretion result in data set [3] was “rapidly excreted via the kidneys”. The “effect on CP-450 system” value in data set [4] is on record as “does not affect CP-450 system”. In addition, the “response to therapy as indicated by parents' correspondence and office visits” value in data set [5] (14 remaining of 19 patients, ages 4-43 years, oral once daily, dose by weight 2.5-15 mg, more stable mood, increased attentiveness, improved sleep hygiene) was “all have had a response to therapy”. Moreover, in data set [5] (setting [6]), the “patients with intermediate responses” value was “two” and the “patients with significant improvements” value was 12. Also, the side effects entry in data set [5] (preliminary experience) is on record as “No side effects have been reported”. Besides, the “time course of initial improvement” value in data set [5] (preliminary trial) is on record as 3-5 days, two weeks, or 4-6 weeks. In data set [5] (two children, parental reports), the “clinical response in patients negative for MTHFR gene polymorphisms” value is given as “responding clinically”. For the same compound, the “response in patients positive for MTHFR gene polymorphisms” value in data set [5] (two of four patients with MTHFR analyses) was “positive response to therapy”. Also, in data set [1] (oral use), the allergic reactions entry is “Allergic reactions have been documented”.

The record behind these values is patent publication US8389535B2, “L-methylfolate treatment for psychiatric or neurologic disorders” (priority 2010, dated 2013).
